Laboratory results reported in patent publication US6958156B2, “Isoflavone derivatives” (Vyrex Corporation, priority 2000, dated 2005).

Experiments:
[1] = Non-enzymatic hydrolysis of genistein esters in aqueous buffer (HPLC); format: physicochemical; conditions: phosphate-buffered saline (0.1 M), pH 7.4, 37°, 10 days
From the text: By way of example, and not of limitation, several embodiments of the inventive subject matter have been prepared and characterized. These examples all fall within the group of pro-compounds where at least one of R7, R6, R5 and R4′ is H2PO4—, and HOOC—(CH2)x-COO— where x=2, 3, or 4. These new phosphate esters and hemiesters are all water soluble and readily hydrolyzed. They are also stable. In aqueous solutions of the exemplified compounds, for example, hydrolysis occurs to the extent of less than 1% per day, when stored at pH 7.4 and 37° C. Dry formulations of the same compounds appear to be indefinitely stable.
HPLC analysis was conducted using a Partisil ODS-3 column (9.5×250 mm), with methanol as the mobile phase, and UV detection at 260 nm.
A solution of genistein-7-phosphate (2.5 mg) in 5 ml of phosphate-buffered saline (0.1 M) at pH 7.4 was incubated at 37° for 10 days.
A solution of genistein-7-hemisuccinate (2.5 mg) in 5 ml of phosphate-buffered saline (0.1 M) at pH 7.4 was incubated at 37° for 10 days.

[2] = Hydrolysis of genistein-7-phosphate to free genistein in human serum; format: in vitro ADME; conditions: 37° C.
Procedure: (§1) In each of these experiments, free genistein was extracted with a 1:1 mixture of ethyl acetate and hexane, then analyzed by HPLC under the conditions described in example 5.
a) In human serum (Sierra Biologicals) at 37° C., the half-life for hydrolysis to free genistein was about 5 hours.

[3] = Hydrolysis of genistein-7-phosphate to free genistein in human blood; format: in vitro ADME; conditions: 37° C.
Procedure: as §1
b) In human blood (Sierra Biologicals) at 37° C., the half-life for hydrolysis to free genistein was about 6 hours.

[4] = Hydrolysis of genistein-7-phosphate to free genistein in rat blood; format: in vitro ADME; conditions: 37° C.
Procedure: as §1
c) In rat blood (Sierra Biologicals) at 37° C., the half-life for hydrolysis to free genistein was about 30 minutes.

[5] = test system: alkaline phosphatase type VII-S; assay: Hydrolysis by alkaline phosphatase type VII-S; format: biochemical, bovine; conditions: 37° C., 0.5 DEA units in 1.0 ml 0.1M glycine buffer pH 10.4, initial substrate 1.07 mM
Procedure: as §1
d) In alkaline phosphatase type VII-S at 37° C., the initial rate of hydrolysis to free genistein was 0.08% per minute.
This enzyme from bovine intestinal mucosa (Sigma cat no. P5521). 0.5 DEA units were dissolved in 1.0 ml of 0.1M glycine buffer pH 10.4, and the initial substrate concentration was 1.07 mM.

[6] = target: alkaline phosphatase type XXIV (Homo sapiens, UniProt P05187); assay: Hydrolysis by alkaline phosphatase type XXIV; format: biochemical; conditions: 37° C.
Procedure: as §1
e) In alkaline phosphatase type XXIV at 37° C., the initial rate of hydrolysis to free genistein was 0.05% per minute.

[7] = Merck Index descriptions; cited from earlier work

Chain of alkaline phosphatase type XXIV (P05187 23-506): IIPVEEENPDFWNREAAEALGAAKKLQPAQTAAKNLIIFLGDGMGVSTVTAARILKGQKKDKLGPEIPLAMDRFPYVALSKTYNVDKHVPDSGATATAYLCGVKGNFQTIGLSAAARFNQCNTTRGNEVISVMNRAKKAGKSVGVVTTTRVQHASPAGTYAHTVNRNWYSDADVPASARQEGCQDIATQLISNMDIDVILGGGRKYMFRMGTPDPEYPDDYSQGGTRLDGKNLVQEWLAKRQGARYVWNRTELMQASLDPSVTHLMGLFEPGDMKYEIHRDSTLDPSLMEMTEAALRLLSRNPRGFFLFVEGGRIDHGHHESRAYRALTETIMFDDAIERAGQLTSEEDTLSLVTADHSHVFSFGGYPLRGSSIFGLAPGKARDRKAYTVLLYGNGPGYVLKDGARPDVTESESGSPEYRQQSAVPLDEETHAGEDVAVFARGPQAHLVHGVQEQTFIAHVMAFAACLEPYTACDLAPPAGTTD

## O=C(O)CCC(=O)Oc1cc(O)c2c(=O)c(-c3ccc(O)cc3)coc2c1 [genistein-7-hemisuccinate, Genistein-7-Hemisuccinate]
[1]
  conversion of the ester to free genistein: about 4%

## O=c1c(-c2ccc(O)cc2)coc2cc(OP(=O)(O)O)cc(O)c12 [genistein-7-phosphate, Genistein-7-Phosphate]
[1]
  free genistein found by HPLC after incubation: absence of free genistein
[2]
  half-life: ~300 min
[3]
  half-life: ~360 min
[4]
  half-life: ~30 min
[5]
  initial rate of hydrolysis to free genistein: 0.08 % per minute
[6]
  initial rate of hydrolysis to free genistein: 0.05 % per minute

## O=c1c(-c2ccc(O)cc2)coc2cc(O)cc(O)c12 [genistein]
[7]
  solubility in water: very insoluble
